Earlier results as cited in patent US6342251B1, “Compositions for nasal administration” (West Pharmaceutical Services Drug Delivery & Clinical …, priority 1997, dated 2002).

Assays:
[1] = Parkinson's disease
[2] = patients, erectile dysfunction

## CN1CCc2cccc3c2[C@H]1Cc1ccc(O)c(O)c1-3 [apomorphine, (6aR)-5,6,6a, 7-tetrahydro-6-methyl-4H-dibenzo(d, e, g) quinoline-10, 11-diol hemihydrate]
[1]
  local reactions after intranasal administration: transient nasal blockage and a burning sensation
[2]
  side effects after nasal administration: unacceptable side effects such as yawning, nausea, vomiting, dizziness, blurred vision, diaphoresis, pallor and mild hypertension
